According to ChEMBL document CHEMBL1909046, “DrugMatrix in vitro pharmacology data”:

Columns and labels:
[1] = molecular target: T1, Alpha-1B adrenergic receptor (Rattus norvegicus, UniProt P15823); assay: DRUGMATRIX: Alpha-1B adrenergic receptor radioligand binding (ligand: prazosin); type: cell membranes, Wistar, Liver, Membrane; conditions: Not Active = under 50% inhibition at 10 µM; for Ki: read-out: Ki
T1 sequence (P15823 whole entry): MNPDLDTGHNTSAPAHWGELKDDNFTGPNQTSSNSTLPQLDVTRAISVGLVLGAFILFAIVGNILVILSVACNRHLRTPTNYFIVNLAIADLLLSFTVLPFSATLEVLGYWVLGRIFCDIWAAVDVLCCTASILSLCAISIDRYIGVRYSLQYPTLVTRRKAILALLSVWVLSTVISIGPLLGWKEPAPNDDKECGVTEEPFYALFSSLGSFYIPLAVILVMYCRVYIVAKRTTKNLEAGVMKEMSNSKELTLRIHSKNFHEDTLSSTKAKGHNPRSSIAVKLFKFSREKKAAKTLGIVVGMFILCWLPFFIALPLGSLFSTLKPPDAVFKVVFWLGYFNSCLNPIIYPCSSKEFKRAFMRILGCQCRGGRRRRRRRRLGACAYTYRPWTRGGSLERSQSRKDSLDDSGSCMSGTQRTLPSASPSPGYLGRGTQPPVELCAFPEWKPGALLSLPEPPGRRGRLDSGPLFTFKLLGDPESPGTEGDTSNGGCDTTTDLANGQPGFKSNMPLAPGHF

[2] = molecular target: Aldo-keto reductase family 1 member B1 (Rattus norvegicus, UniProt P07943); assay: biochemical; type: tissue-based, Lens of camera-type eye;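 also: inhibition of aldose reductase enzyme activity, measured with DL-glyceraldehyde as the substrate; in other assays of this panel Not Active means under 50% inhibition at 10 µM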
[3] = molecular target: Sodium-dependent dopamine transporter (Homo sapiens, UniProt Q01959); assay: DRUGMATRIX: Dopamine Transporter radioligand binding (ligand: [125I] RTI-55); type: cell membranes, CHO-K1, Membrane; conditions: cho-k1; Not Active = under 50% inhibition at 10 µM
Sodium-dependent dopamine transporter, sequence (Q01959 whole entry): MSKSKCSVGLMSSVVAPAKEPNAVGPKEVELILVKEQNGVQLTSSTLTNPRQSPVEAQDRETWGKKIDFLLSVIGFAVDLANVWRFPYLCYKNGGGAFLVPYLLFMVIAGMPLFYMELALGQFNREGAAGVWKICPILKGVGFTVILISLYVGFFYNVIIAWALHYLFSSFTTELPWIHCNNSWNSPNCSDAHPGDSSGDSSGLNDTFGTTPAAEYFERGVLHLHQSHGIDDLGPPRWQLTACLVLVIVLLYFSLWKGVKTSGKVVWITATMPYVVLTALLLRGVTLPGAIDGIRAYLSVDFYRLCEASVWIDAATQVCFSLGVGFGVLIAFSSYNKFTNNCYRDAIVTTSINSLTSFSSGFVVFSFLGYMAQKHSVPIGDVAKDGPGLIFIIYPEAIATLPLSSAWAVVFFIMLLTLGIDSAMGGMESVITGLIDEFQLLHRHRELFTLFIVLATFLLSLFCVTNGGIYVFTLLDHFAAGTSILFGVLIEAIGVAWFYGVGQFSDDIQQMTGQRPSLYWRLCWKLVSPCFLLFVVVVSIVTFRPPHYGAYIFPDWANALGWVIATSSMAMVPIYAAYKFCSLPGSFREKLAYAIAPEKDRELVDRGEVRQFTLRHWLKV

[4] = molecular target: Mitogen-activated protein kinase 14 (Homo sapiens, UniProt Q16539); design: species or system Escherichia coli;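 also: inhibition of p38alpha enzyme activity in a biochemical kinase assay, with myelin basic protein serving as substrate; in other assays of this panel Not Active means under 50% inhibition at 10 µM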
Mitogen-activated protein kinase 14, sequence (Q16539 whole entry): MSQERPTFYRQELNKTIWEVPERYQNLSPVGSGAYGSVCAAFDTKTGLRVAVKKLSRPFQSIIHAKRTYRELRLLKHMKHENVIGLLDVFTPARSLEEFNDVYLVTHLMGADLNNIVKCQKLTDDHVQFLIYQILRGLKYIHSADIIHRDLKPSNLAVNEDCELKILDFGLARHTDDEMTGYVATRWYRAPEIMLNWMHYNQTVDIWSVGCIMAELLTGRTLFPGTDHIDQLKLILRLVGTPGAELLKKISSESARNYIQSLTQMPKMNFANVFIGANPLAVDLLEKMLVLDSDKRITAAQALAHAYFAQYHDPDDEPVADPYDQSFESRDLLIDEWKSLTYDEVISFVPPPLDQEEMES

Adenosine receptor A1 = molecular target: T2, Adenosine receptor A1 (Homo sapiens, UniProt P30542); type: cell membranes, CHO, Membrane; conditions: cho;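 also: radioligand binding assay at the adenosine A1 receptor, with DPCPX serving as the labelled ligand; in other assays of this panel Not Active means under 50% inhibition at 10 µM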
T2 sequence (P30542 whole entry): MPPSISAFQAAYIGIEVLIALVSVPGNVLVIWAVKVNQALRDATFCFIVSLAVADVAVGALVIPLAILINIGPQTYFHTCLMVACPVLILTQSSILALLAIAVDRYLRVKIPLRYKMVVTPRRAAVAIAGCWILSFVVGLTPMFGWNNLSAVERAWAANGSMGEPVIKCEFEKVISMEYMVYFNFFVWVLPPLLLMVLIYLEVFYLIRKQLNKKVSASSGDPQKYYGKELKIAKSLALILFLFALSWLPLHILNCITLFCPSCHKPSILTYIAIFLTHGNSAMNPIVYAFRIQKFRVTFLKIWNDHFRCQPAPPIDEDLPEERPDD

Cytochrome P450 2A6 = molecular target: T3, Cytochrome P450 2A6 (Homo sapiens, UniProt P11509); conditions: bti-tn-5b1-4; also: in other assays of this panel Not Active means under 50% inhibition at 10 µM
T3 sequence (P11509 whole entry): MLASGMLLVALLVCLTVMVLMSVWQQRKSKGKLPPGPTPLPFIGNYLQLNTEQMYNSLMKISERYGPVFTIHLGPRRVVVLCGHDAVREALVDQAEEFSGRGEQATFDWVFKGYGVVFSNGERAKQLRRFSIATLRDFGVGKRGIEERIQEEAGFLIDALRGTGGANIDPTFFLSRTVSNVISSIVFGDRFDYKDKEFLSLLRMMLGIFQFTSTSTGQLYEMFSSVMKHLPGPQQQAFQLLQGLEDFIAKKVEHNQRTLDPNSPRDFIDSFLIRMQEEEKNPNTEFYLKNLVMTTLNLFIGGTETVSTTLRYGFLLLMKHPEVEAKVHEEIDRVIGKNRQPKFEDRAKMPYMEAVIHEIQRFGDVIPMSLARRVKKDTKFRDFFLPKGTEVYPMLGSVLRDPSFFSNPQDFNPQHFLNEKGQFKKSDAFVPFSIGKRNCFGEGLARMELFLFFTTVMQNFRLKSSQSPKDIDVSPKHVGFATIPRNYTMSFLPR

SMILES | IC50 [1] | IC50 [2] | IC50 [3] | IC50 [4] | IC50 (Adenosine receptor A1) | IC50 (Cytochrome P450 2A6) | Ki (Cytochrome P450 2A6) | IC50 ([1]; read-out: IC50) | Ki [1] | IC50 ([2]; read-out: IC50)
CC(C)(C)NCC(O)c1cc(Cl)c(N)c(Cl)c1 (stereo not drawn) [CLENBUTEROL] | Not Active | Not Active | Not Active | Not Active | Not Active | Not Active | Not Active | – | – | –
CC(O)CO (stereo not drawn) [PROPYLENE GLYCOL] | Not Active | Not Active | Not Active | Not Active | Not Active | Not Active | Not Active | – | – | –
CC1Cc2ccccc2N1NC(=O)c1ccc(Cl)c(S(N)(=O)=O)c1 (stereo not drawn) [INDAPAMIDE] | Not Active | Not Active | Not Active | Not Active | Not Active | Not Active | Not Active | – | – | –
c1ccc(Nc2ccc(Nc3ccccc3)cc2)cc1 | Not Active | Not Active | Not Active | Not Active | Not Active | Not Active | Not Active | – | – | –
COc1cc2nc(N3CCN(C(=O)C4COc5ccccc5O4)CC3)nc(N)c2cc1OC (stereo not drawn) [DOXAZOSIN] | – | Not Active | – | Not Active | Not Active | Not Active | Not Active | 0.751 nM | 0.416 nM | –
CCOc1ccc(NC(C)=O)cc1 [PHENACETIN] | Not Active | Not Active | Not Active | Not Active | Not Active | Not Active | Not Active | – | – | –
CN(C)CCCN1c2ccccc2Sc2ccc(Cl)cc21 [CHLORPROMAZINE] | – | Not Active | – | Not Active | Not Active | Not Active | Not Active | – | – | –
CC(C)[C@H]1C(=O)N2CCC[C@H]2[C@]2(O)O[C@](NC(=O)[C@@H]3C=C4c5cccc6[nH]cc(c56)C[C@H]4N(C)C3)(C(C)C)C(=O)N12 [ERGOCORNINE] | – | Not Active | Not Active | Not Active | Not Active | Not Active | Not Active | 5.19 nM | 2.87 nM | –
CC(C)(Oc1ccc(Cl)cc1)C(=O)O [CLOFIBRIC ACID] | Not Active | Not Active | Not Active | Not Active | Not Active | Not Active | Not Active | – | – | –
CCC(C)n1ncn(-c2ccc(N3CCN(c4ccc(OCC5COC(Cn6cncn6)(c6ccc(Cl)cc6Cl)O5)cc4)CC3)cc2)c1=O (stereo not drawn) [ITRACONAZOLE] | Not Active | Not Active | Not Active | Not Active | Not Active | Not Active | Not Active | – | – | –
O=c1oc2ccccc2c(O)c1Cc1c(O)c2ccccc2oc1=O [DICUMAROL] | Not Active | – | Not Active | Not Active | Not Active | Not Active | Not Active | – | – | 4.09 µM
Cc1onc(O)c1CC(N)C(=O)O (racemic) [(R,S)-AMPA] | Not Active | Not Active | Not Active | Not Active | Not Active | Not Active | Not Active | – | – | –
CC1=C2C(=CO[C@H](C)[C@H]2C)C(O)=C(C(=O)O)C1=O [CITRININ] | Not Active | Not Active | Not Active | Not Active | Not Active | Not Active | Not Active | – | – | –
Nc1nc2c(ncn2COCCO)c(=O)[nH]1 [ACYCLOVIR] | Not Active | Not Active | Not Active | Not Active | Not Active | Not Active | Not Active | – | – | –
CCOC(=O)C1=C(COCCN)NC(C)=C(C(=O)OC)C1c1ccccc1Cl (stereo not drawn) [AMLODIPINE] | Not Active | Not Active | – | Not Active | Not Active | Not Active | Not Active | – | – | –
O=C1CC[C@@H](N2C(=O)c3ccccc3C2=O)C(=O)N1 | Not Active | Not Active | Not Active | Not Active | Not Active | Not Active | Not Active | – | – | –

SMILES | IC50 [1] | IC50 [2] | IC50 [3] | IC50 [4] | IC50 (Adenosine receptor A1) | IC50 (Cytochrome P450 2A6) | Ki (Cytochrome P450 2A6) | IC50 ([1]; read-out: IC50) | Ki [1] | IC50 ([2]; read-out: IC50)
Cc1ccc(N(CC2=NCCN2)c2cccc(O)c2)cc1 [PHENTOLAMINE] | – | Not Active | Not Active | Not Active | Not Active | Not Active | Not Active | – | – | –
CC(C)C(Br)C(=O)NC(N)=O (stereo not drawn) [BROMISOVALUM] | Not Active | Not Active | Not Active | Not Active | Not Active | Not Active | Not Active | – | – | –
Cc1ccccc1N1C(=O)c2cc(S(N)(=O)=O)c(Cl)cc2NC1C (stereo not drawn) [METOLAZONE] | Not Active | Not Active | Not Active | Not Active | Not Active | Not Active | Not Active | – | – | –
C1CCC(C(CC2CCCCN2)C2CCCCC2)CC1 (stereo not drawn) [PERHEXILINE] | Not Active | Not Active | Not Active | Not Active | Not Active | Not Active | Not Active | – | – | –
CC(C)CN(C[C@@H](O)[C@H](Cc1ccccc1)NC(=O)O[C@H]1CCOC1)S(=O)(=O)c1ccc(N)cc1 | Not Active | Not Active | Not Active | Not Active | Not Active | Not Active | Not Active | – | – | –
Cc1ccc2cc3c(ccc4ccccc43)c3c2c1CC3 [3-METHYLCHOLANTHRENE] | Not Active | Not Active | Not Active | Not Active | Not Active | Not Active | Not Active | – | – | –
Nc1nc2c(ncn2CCC(CO)CO)c(=O)[nH]1 [PENCICLOVIR] | Not Active | Not Active | Not Active | Not Active | Not Active | Not Active | Not Active | – | – | –
CN(C)C(=O)Oc1cc(OC(=O)N(C)C)cc(C(O)CNC(C)(C)C)c1 (stereo not drawn) [BAMBUTEROL] | Not Active | Not Active | Not Active | Not Active | Not Active | Not Active | Not Active | – | – | –
Clc1cccc(Cl)c1NC1=NCCN1 [CLONIDINE] | – | Not Active | Not Active | Not Active | Not Active | Not Active | Not Active | – | – | –
CC1(C)S[C@@H]2[C@H](NC(=O)Cc3ccccc3)C(=O)N2[C@H]1C(=O)O [PENICILLIN G] | Not Active | Not Active | Not Active | Not Active | Not Active | – | – | – | – | –
N=C(N)NCCN1CCCCCCC1 [GUANETHIDINE] | Not Active | Not Active | Not Active | Not Active | Not Active | – | – | – | – | –
Nc1c(Br)cc(Br)cc1CN[C@H]1CC[C@H](O)CC1 [AMBROXOL] | Not Active | Not Active | Not Active | Not Active | Not Active | – | – | – | – | –
CC(NC(C)(C)C)C(=O)c1cccc(Cl)c1 (stereo not drawn) [BUPROPION] | Not Active | Not Active | – | Not Active | Not Active | Not Active | Not Active | – | – | –
CNCCCN1c2ccccc2CCc2ccccc21 [DESIPRAMINE] | Not Active | Not Active | – | Not Active | Not Active | Not Active | Not Active | – | – | –
C[C@]12CC[C@@H]3c4ccc(O)cc4CC[C@H]3[C@@H]1CCC2=O [ESTRONE] | Not Active | Not Active | Not Active | Not Active | Not Active | – | – | – | – | –
CN(C)c1nc(N(C)C)nc(N(C)C)n1 [ALTRETAMINE] | Not Active | Not Active | Not Active | Not Active | Not Active | – | – | – | – | –
